Test results reported in the supplement of paper PMC11208160.

Experiment: recombinant UMI read abundance after kanamycin selection (control-corrected) (log10(CPM+1)); higher = more efficient recombination; extreme values may be limits of the assay; sequences stand for … in AGTGCAGAGAAAATCGGCCAGTTTTCTCTGCCTGCAGTCCGCATGCCGTGGGACCCCTTGGGTTCTAACCTGTTGCCTAGATTTATGCAGCGGACTGCCTTTCTCCCAAAGTGATAAACCGG…AGGTTGGTTTCACT; site = the 11-nt donor
How it was run: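 After plating on IPTG (0.07 mM) plus kanamycin, or unselected, in two replicates, recombinant UMIs were PCR-amplified across the donor–target junction and sequenced. The cells were Escherichia coli co-electroporated with a UMI-tagged donor and donor-binding-loop pair library and a target plasmid with a fixed target and T7-inducible IS621 bridge recombinase. Values are log10(CPM+1), with CPM averaged over replicates and scaled by control-derived factors.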
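Further: IS621 bridge recombinase in Escherichia coli cells against a fixed T5 target plasmid.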

CAAGCACCATGGACCGGTTTTCCCGGTAATCCGTATTTGCT (site CAAGCAGCTAG)
recombinant UMI read abundance (log10): 0.0135

CAAGCACCATGGACCGGTTTTCCCGGTAATCCGTATTTGCT (site CAAGCATCTAG)
recombinant UMI read abundance (log10): 0.0059

CAAGCAGCATGGACCGGTTTTCCCGGTAATCCGTATTTGCC (site CAAGCAGCTAG)
recombinant UMI read abundance (log10): 1.86

CAAGCAGCATGGACCGGTTTTCCCGGTAATCCGTATTTGCC (site CAAGCAGCTCG)
recombinant UMI read abundance (log10): 1.16

CAAGCAGCATGGACCGGTTTTCCCGGTAATCCGTATTTGCC (site CAAGCAGCTGG)
recombinant UMI read abundance (log10): 2.75

CAAGCAGCATGGACCGGTTTTCCCGGTAATCCGTATTTGCC (site CAAGCAGCTTG)
recombinant UMI read abundance (log10): 1.94

CAAGCATCATGGACCGGTTTTCCCGGTAATCCGTATTTGCT (site CAAGCAACTAG)
recombinant UMI read abundance (log10): 0

CAAGCATCATGGACCGGTTTTCCCGGTAATCCGTATTTGCT (site CAAGCACCTAG)
recombinant UMI read abundance (log10): 0

CAAGCATCATGGACCGGTTTTCCCGGTAATCCGTATTTGCT (site CAAGCAGCTAG)
recombinant UMI read abundance (log10): 0

CAAGCATCATGGACCGGTTTTCCCGGTAATCCGTATTTGCT (site CAAGCATCTAG)
recombinant UMI read abundance (log10): 2.05

CAAGCCTCATGGACCGGTTTTCCCGGTAATCCGTATTTGTC (site CAAGCCTCTGA)
recombinant UMI read abundance (log10): 3.3

CAAGCGCCATGGACCGGTTTTCCCGGTAATCCGTATTTGTT (site CAAGCGCCTAA)
recombinant UMI read abundance (log10): 2.13

CAAGCGCCATGGACCGGTTTTCCCGGTAATCCGTATTTGTT (site CAAGCGCCTCA)
recombinant UMI read abundance (log10): 0.0113

CAAGCGCCATGGACCGGTTTTCCCGGTAATCCGTATTTGTT (site CAAGCGCCTGA)
recombinant UMI read abundance (log10): 1.75

CAAGCGCCATGGACCGGTTTTCCCGGTAATCCGTATTTGTT (site CAAGCGCCTTA)
recombinant UMI read abundance (log10): 0.663

CAAGCTGCATGGACCGGTTTTCCCGGTAATCCGTATTTGCT (site CAAGCAGCTAG)
recombinant UMI read abundance (log10): 0.397

CAAGCTGCATGGACCGGTTTTCCCGGTAATCCGTATTTGCT (site CAAGCCGCTAG)
recombinant UMI read abundance (log10): 0.95

CAAGCTGCATGGACCGGTTTTCCCGGTAATCCGTATTTGCT (site CAAGCGGCTAG)
recombinant UMI read abundance (log10): 0

CAAGCTGCATGGACCGGTTTTCCCGGTAATCCGTATTTGCT (site CAAGCTGCTAG)
recombinant UMI read abundance (log10): 2.42

CAAGGAGCATGGACCGGTTTTCCCGGTAATCCGTATTTGTC (site CAAGGAGCTGA)
recombinant UMI read abundance (log10): 3.18

CAAGTCACATGGACCGGTTTTCCCGGTAATCCGTATTTGAG (site CAAGTCACTCA)
recombinant UMI read abundance (log10): 1.48

CAAGTCACATGGACCGGTTTTCCCGGTAATCCGTATTTGAG (site CAAGTCACTCC)
recombinant UMI read abundance (log10): 0.563

CAAGTCACATGGACCGGTTTTCCCGGTAATCCGTATTTGAG (site CAAGTCACTCG)
recombinant UMI read abundance (log10): 1.1

CAAGTCACATGGACCGGTTTTCCCGGTAATCCGTATTTGAG (site CAAGTCACTCT)
recombinant UMI read abundance (log10): 1.82

CAAGTCCCATGGACCGGTTTTCCCGGTAATCCGTATTTGCT (site CAAATCCCTAG)
recombinant UMI read abundance (log10): 0

CAAGTCCCATGGACCGGTTTTCCCGGTAATCCGTATTTGCT (site CAACTCCCTAG)
recombinant UMI read abundance (log10): 0.843

CAAGTCCCATGGACCGGTTTTCCCGGTAATCCGTATTTGCT (site CAAGTCCCTAG)
recombinant UMI read abundance (log10): 1.92

CAAGTCCCATGGACCGGTTTTCCCGGTAATCCGTATTTGCT (site CAATTCCCTAG)
recombinant UMI read abundance (log10): 0

CAAGTCGCATGGACCGGTTTTCCCGGTAATCCGTATTTGGG (site CAAGTCACTCC)
recombinant UMI read abundance (log10): 0.0586
